Test results taken from ChEMBL document CHEMBL5390242, “Design, Synthesis, and Antitumor Efficacy of Substituted 2-Amino[1,2,4]triazolopyrimidines and Related Heterocycles as Dual Inhibitors for Microtubule Polymerization and Janus Kinase 2” (J Med Chem, 2023).
The source made the active and inactive calls. No cut-off for these calls is given here.

Key:
[1] = Toxicity in Balb/c mouse xenografted with human A549 cells assessed as effect on lung morphology at 50 mg/kg,ip administration measured after 31 days by Hematoxylin-eosin staining based microscopy; type: organism-based; details: in vivo, 744 h, time 31 day
[2] = Oral bioavailability in CD-1 mouse at 10 mg/kg,ip measured upto 24 hrs by HPLC-MS/MS analysis; type: ADME, organism-based; details: in vivo
[3] = Toxicity in Balb/c mouse xenografted with human A549 cells assessed as effect on spleen morphology at 50 mg/kg,ip administration measured after 31 days by Hematoxylin-eosin staining based microscopy; type: organism-based; details: in vivo, 744 h, time 31 day
[4] = MRT (0 to t) in CD-1 mouse at 1 mg/kg,iv measured upto 24 hrs by HPLC-MS/MS analysis; type: ADME, organism-based; details: in vivo
A549 [5] = test: Induction of apoptosis in human A549 cells assessed as necrotic cells at 20 nM incubated for 24 hrs by Annexin V-FITC/PI staining based flow cytometry (reference value: 0.67 %); type: functional
A549 [6] = test: Induction of mitochondrial membrane potential loss in human A549 cells by measuring green fluorescence at 10 nM incubated for 16 hrs by JC-1 staining based flow cytometry analysis (reference value: 0.7 %); type: functional
[7] = MRT (0 to t) in CD-1 mouse at 10 mg/kg,ip measured upto 24 hrs by HPLC-MS/MS analysis; type: ADME, organism-based; details: in vivo
A549 [8] = test: Induction of mitochondrial membrane potential loss in human A549 cells by measuring red fluorescence at 20 nM incubated for 16 hrs by JC-1 staining based flow cytometry analysis (reference value: 99.3 %); type: functional
Tubulin (Homo sapiens) = Tubulin (Homo sapiens) (UniProt P68371+Q9H4B7+P0DPH7+P68366+Q13509+Q71U36+P04350+Q3ZCM7+P07437+P68363+Q9BQE3+Q6PEY2+Q13885+Q9BVA1+Q9BUF5); test: Disruption of microtubule assembly in human A549 cells at 1 uM incubated for 6 hrs by Hoechst33342 staining based immunofluorescence analysis; type: cell-based
HCT-8 = test: Antiproliferative activity against human HCT-8 cells assessed as cell growth inhibition incubated for 48 hrs by MTT assay; type: functional, cell-based; details: HCT-8, 48 h
A549 [9] = test: Induction of cell cycle arrest in human A549 cells assessed as accumulation of cells at G2/M phase at 5 nM incubated for 24 hrs by PI/RNase staining based flow cytometry analysis; type: functional
[10] = target: JAK2-STAT3 (Homo sapiens) (UniProt O60674+P40763); test: Inhibition of JAK2/STAT3 signalling pathway in human A549 cells assessed as effect on JAK2 protein level at 5 to 20 uM incubated for 24 hrs by Western blotting analysis; type: cell-based; details: dose 5-20 µM
[11] = Cytotoxicity against human L02 cells assessed as cell growth inhibition incubated for 48 hrs by MTT assay; type: toxicity, cell-based
HeLa = test: Antiproliferative activity against human HeLa cells assessed as cell growth inhibition incubated for 48 hrs by MTT assay; type: functional, cell-based
[12] = Toxicity in Balb/c mouse xenografted with human A549 cells assessed as change in body weight at 50 mg/kg,ip administration measured after 31 days; type: organism-based; details: in vivo, 744 h, time 31 day
[13] = target: Tyrosine-protein kinase JAK2 (Homo sapiens, UniProt O60674); test: Inhibition of JAK2 (unknown origin) using Poly-(Glu,Tyr 4:1) peptide as substrate at 1 uM in presence of ATP by ADP-Glo reagent based assay relative to control
Tyrosine-protein kinase JAK2, sequence (O60674 whole entry): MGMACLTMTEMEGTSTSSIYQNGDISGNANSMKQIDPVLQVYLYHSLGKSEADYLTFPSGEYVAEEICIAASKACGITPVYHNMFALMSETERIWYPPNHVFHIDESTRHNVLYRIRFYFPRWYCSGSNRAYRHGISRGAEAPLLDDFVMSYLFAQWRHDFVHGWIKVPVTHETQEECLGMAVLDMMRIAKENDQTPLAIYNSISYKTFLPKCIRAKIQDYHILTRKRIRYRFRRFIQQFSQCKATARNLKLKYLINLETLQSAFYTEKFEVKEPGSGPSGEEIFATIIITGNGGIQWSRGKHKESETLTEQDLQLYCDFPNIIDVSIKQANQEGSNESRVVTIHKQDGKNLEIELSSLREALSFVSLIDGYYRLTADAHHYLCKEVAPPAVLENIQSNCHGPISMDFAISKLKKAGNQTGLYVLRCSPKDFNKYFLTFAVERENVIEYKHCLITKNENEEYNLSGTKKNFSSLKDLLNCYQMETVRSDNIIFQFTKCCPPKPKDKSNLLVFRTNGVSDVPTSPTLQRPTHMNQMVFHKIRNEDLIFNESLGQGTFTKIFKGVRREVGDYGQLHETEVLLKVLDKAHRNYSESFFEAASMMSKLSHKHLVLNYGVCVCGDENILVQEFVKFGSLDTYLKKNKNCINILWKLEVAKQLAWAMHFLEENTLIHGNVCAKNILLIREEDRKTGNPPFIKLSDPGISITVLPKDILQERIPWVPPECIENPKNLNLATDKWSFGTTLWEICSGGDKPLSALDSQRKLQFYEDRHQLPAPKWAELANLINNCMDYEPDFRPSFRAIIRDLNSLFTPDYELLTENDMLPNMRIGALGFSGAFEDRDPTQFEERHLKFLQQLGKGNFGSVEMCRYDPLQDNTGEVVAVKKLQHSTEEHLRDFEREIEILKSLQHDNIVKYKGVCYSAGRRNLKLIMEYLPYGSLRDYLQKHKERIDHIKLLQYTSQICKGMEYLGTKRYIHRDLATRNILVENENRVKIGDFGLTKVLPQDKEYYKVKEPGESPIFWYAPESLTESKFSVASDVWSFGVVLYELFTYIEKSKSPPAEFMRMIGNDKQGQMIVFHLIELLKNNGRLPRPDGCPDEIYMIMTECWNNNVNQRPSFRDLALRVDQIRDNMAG

A549 [14] = test: Induction of apoptosis in human A549 cells assessed as reduction of mitochondrial membrane potential at 5 to 20 nM incubated for 16 hrs by JC-1 staining based fluorescence microscopy; type: functional, cell-based; details: dose 5-20 nM
[15] = Antiproliferative activity against Chinese hamster CHO-K1 cells assessed as cell growth inhibition incubated for 48 hrs by MTT assay; type: toxicity, cell-based, Cricetulus griseus
A549 [16] = test: Induction of mitochondrial membrane potential loss in human A549 cells by measuring red fluorescence at 5 nM incubated for 16 hrs by JC-1 staining based flow cytometry analysis (reference value: 99.3 %); type: functional
A549 [17] = test: Antitumor activity against human A549 cells xenografted in Balb/c mouse assessed as reduction in tumor weight at 50 mg/kg,ip administration measured after 31 days; type: functional; parameters: scale not given: the % may be the effect or the level left; details: time 31 day
[18] = AUC (0 to infinity) in CD-1 mouse at 10 mg/kg,ip measured upto 24 hrs by HPLC-MS/MS analysis; type: ADME, organism-based; parameters: time < 24 hrs, dose 10 mg/kg, route ip; details: in vivo
[19] = AUC (0 to t) in CD-1 mouse at 10 mg/kg,ip measured upto 24 hrs by HPLC-MS/MS analysis; type: ADME, organism-based; parameters: dose 10 mg/kg, time < 24 hrs, route ip; details: in vivo
[20] = Metabolic stability in mouse liver microsomes assessed as half life incubated for 10 mins in presence of NADPH by LC-MS/MS analysis; type: ADME, Microsome
MCF7 = test: cells; details: Homo sapiens, MCF7, 48 h
Description: Antiproliferative activity against human MCF7 cells assessed as cell growth inhibition incubated for 48 hrs by MTT assay

[21] = Cytotoxicity against human HaCaT cells assessed as cell growth inhibition incubated for 48 hrs by MTT assay; type: toxicity, cell-based

In the case of `COc1cc(-c2nccc3nc(Nc4cccc5[nH]ccc45)nn23)cc(OC)c1OC`, the Activity [1] is reported as “Non-Toxic”, the bioavailability [2] is reported as 15.4% and the Activity [3] is reported as “Non-Toxic”. For the same compound, the MRT last at 24 h [4] was 5.2 h, the Activity (A549 [5]) was 5.26% and the Activity (A549 [6]) was 15.4%. For the same compound, the MRT last at 24 h [7] was 4.6 h, the Activity (A549 [8]) was 55.9% and the Activity (Tubulin (Homo sapiens)) was “Active”. For the same compound, the IC50 (HCT-8) was 34 nM, the Activity (A549 [9]) was 15.6% and the inhibition [10] was “inactive”. The IC50 at 48 h [11] was 339 nM, the IC50 (HeLa) was 15 nM and the Activity [12] was “Non-Toxic”. For the same compound, the inhibition [13] was 97%, the Activity (A549 [14]) was “Active” and the IC50 at 48 h [15] was 130 nM. It also gave an Activity (A549 [16]) of 89.1%, an Activity (A549 [17]) of 70% and an AUC(0-inf) [18] of 580 ng·h/mL. It also gave an AUC(0-t) at 24 h [19] of 559 ng·h/mL, a half-life [20] of 0.362 h and an IC50 (MCF7) of 18 nM. It also gave an IC50 at 48 h [21] of 450 nM.
